Target: T1, human GPR120 (Homo sapiens, UniProt Q5NUL3)
T1 construct: expressed in transfected cells
T1 sequence (Q5NUL3 1-361): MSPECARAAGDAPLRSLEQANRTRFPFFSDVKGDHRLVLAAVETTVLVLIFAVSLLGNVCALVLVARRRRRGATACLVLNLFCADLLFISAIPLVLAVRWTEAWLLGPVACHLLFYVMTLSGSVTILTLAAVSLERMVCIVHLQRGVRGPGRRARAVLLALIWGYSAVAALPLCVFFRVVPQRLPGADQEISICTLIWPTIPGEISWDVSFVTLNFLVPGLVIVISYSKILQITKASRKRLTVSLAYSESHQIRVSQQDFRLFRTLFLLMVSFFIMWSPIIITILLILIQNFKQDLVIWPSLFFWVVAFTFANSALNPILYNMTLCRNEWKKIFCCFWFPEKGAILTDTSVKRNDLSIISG
Experiment: Human GPR120 IP1 Assay (inositol phosphate turnover, CisBio IP-One kit)
Format: cell-based
Conditions: IP1 accumulation in CHO-K1 cells stably expressing the short form of human GPR120; 60 min compound incubation; 4-parameter fit; read-out: hGPR120 EC50
Text: Human GPR120 IP1 Assay Principle
The binding of small molecule agonists to the G-protein-coupled receptor GPR120 activates phospholipase C, and leads to the generation of inositol 1,4,5-trisphosphate (InsP3 or IP3). IP3 is subsequently de-phosphorylated to IP1, which accumulates in cells and is stable in the presence of lithium chloride.
In the present method, agonist-induced activation of the human GPR120 receptor was monitored by measuring the accumulation of IP1 in CHO-K1 cells that were stably expressing the short form of human GPR120 (Accession #NM_001195755). Following agonist addition, GPR120 activation and subsequent accumulation of IP1 was measured using a homogeneous Time Resolved Fluorescence-based ELISA commercially available from CisBio (IP-one ELISA Kit). The IP-One ELISA was a competitive immunoassay which uses IP1 labeled with […] and a terbium cryptate-labeled anti-IP1 monoclonal antibody. […] The signal loss was then back calculated to IP1 concentration using an IP1 standard curve. Determination of IP1 concentration was a direct measure of GPR120 activation and was used to determine compound potency (EC50).
Generation of GPR120-Expressing Cells:
Human GPR120 stable cell-lines were generated in CHO cells. The expression plasmids were transfected using lipofectamine (Life Technologies) following manufacturer's instructions. Stable cell-lines were generated following drug selection and single cell cloning.
Inositol Phosphate Turnover (IP1) Assay:
The assay was performed in 384-well format. CHO cells stably expressing human GPR120 were plated at […] per well in growth medium (DMEM/F12, 10% fetal calf serum). Cell plates were then incubated 16 hours at 37 degrees in a 5% CO2 incubator. Measurement of Inositol Phosphate Turnover (IP1) was performed using the CisBio IP-One kit (Part number 62IPAPEB). After the 16 hour incubation, the growth media was removed by centrifugation using the BlueWasher (AusWasher GUI Ver. v1.0.1.8) Protocol #21-“Light Dry” and 10 ul of stimulation buffer (prepared as described in the kit) was added to each well. In a separate plate, compounds were diluted in DMSO (200-fold over the final concentration in the assay well) and 50 nl was acoustically transferred to the appropriate well in the assay cell plate. The plates were then incubated for 60 minutes at 37 degrees in a 5% CO2 incubator. 10 ul of detection buffer (also prepared as described in the IP-One kit) was added to each well and the plates were incubated at room temperature for 60 minutes in the dark. The plates were then read in a Perkin Elmer EnVision or equivalent reader able to measure FRET. Fluorescent ratio of emission at 665 and 620 nm was then converted to the IP1 concentration by back calculating from an IP1 standard curve prepared at the time of the assay. The data was normalized to % activity using a reference compound, and the EC50 values were determined using a standard 4-parameter fit.

Molecule | EC50 [nM]
Cc1ccc(-n2nc(C)c(C#N)c2N2CCc3cc(C(C)CCCC(=O)O)ccc3C2)cc1 (single isomer, unassigned) [Example 140, 5-{2-[4-cyano-3-methyl-1-(4-methylphenyl)-1H-pyrazol-5-yl]-1,2,3,4-tetrahydroisoquinolin-6-yl} hexanoic acid] | 209
Cc1cc2c(c(F)c1CCC(=O)O)CCN(c1cc(OC(F)(F)F)ccc1F)C2 [Example 58, 3-(5-fluoro-2-(2-fluoro-5-(trifluoromethoxy)phenyl)-7-methyl-1,2,3,4-tetra-hydroisoquinolin-6-yl)propanoic acid] | 472
3-{2-[2-cyano-5-(cyclobutyloxy) phenyl]-1,2,3,4-tetrahydroiso- quinolin-6-yl}propanoic acid [Example 46] | 5390
O=C(O)CCc1ccc2c(c1)CCN(c1cc(OC3CCC3)cc(Cl)c1F)C2 [Example 54, 3-{2-[3-chloro-5-(cyclobutyloxy)-2-fluorophenyl]-1,2,3,4-tetrahydro-isoquinolin-6-yl}propanoic acid] | 1680
O=C(O)CCc1ccc2c(c1F)CCN(c1cc(OC3CCC3)ccc1F)C2 [Example 61, 3-(2-(5-cyclobutoxy-2-fluorophenyl)-5-fluoro-1,2,3,4-tetrahydro-isoquinolin-6-yl)-propanoic acid] | 28
CO[C@H]1C[C@H](Oc2ccc(C#N)c(N3CCc4cc(CCC(=O)O)ccc4C3)c2)C1 [Example 48, 3-(2-{2-cyano-5-[(trans-3-methoxy-cyclobutyl)oxy]phenyl}-1,2,3,4-tetrahydroisoquinolin-6-yl)-propanoic acid] | 596
Cc1ccc(-n2nc(C)c(C#N)c2N2CCc3cc(CCCCC(=O)O)ccc3C2)cc1 [Example 127, 5-(2-(4-cyano-3-methyl-1-(p-tolyl)-1H-pyrazol-5-yl)-1,2,3,4-tetrahydro-isoquinolin-6-yl)pentanoic acid] | 35
CO[C@H]1C[C@H](Oc2cc(F)c(F)c(N3CCc4c(ccc([C@H]5C[C@@H]5C(=O)O)c4F)C3)c2)C1 [Example 106, (1 S,2S)-2-(2-(2,3-difluoro-5-((1 r,3S)-3-methoxycyclobutoxy)phenyl)-5-fluoro-1,2,3,4-tetra-hydroisoquinolin-6-yl)cyclopropanecarboxylic acid] | 83
O=C(O)C1CC1c1ccc2c(c1)CCN(c1cc(OC(F)(F)F)cc(Cl)c1F)C2 (stereo not shown) [Example 105, 2-{2-[3-chloro-2-fluoro-5-(trifluoro-methoxy)phenyl]-1,2,3,4-tetra-hydroisoquinolin-6-yl}cyclo-propane-carboxylic acid] | 6610
O=C(O)CCc1cc(F)c2c(c1)CCN(c1cc(OC(F)(F)F)ccc1F)C2 [Example 51, 3-{8-fluoro-2-[2-fluoro-5-(trifluoromethoxy)phenyl]-1,2,3,4-tetrahydroisoquinolin-6-yl}-propanoic acid] | 317
O=C(O)[C@H]1C[C@@H]1c1ccc2c(c1F)CCN(c1cc(OC(F)(F)F)ccc1F)C2 [Example 118, (1S,2S)-2-{5-fluoro-2-[2-fluoro-5-(trifluoromethoxy)phenyl]-1,2,3,4-tetrahydroisoquinolin-6-yl} cyclopropane-carboxylic acid] | 215
Cc1ccc(Oc2cc(C(F)F)c(F)c(N3CCc4cc(CCC(=O)O)ccc4C3)c2)nc1 [Example 16, 3-(2-{3-(difluoromethyl)-2-fluoro-5-[(5-methylpyridin-2-yl)oxy]phenyl}-1,2,3,4-tetrahydroiso-quinolin-6-yl)propanoic acid] | 22
CO[C@H]1C[C@H](Oc2cc(C#N)c(F)c(N3CCc4cc(CCC(=O)O)ccc4C3)c2)C1 [Example 34, 3-(2-{3-cyano-2-fluoro-5-[(trans-3-methoxycyclobutyl)oxy]phenyl}-1,2,3,4-tetrahydroisoquinolin-6-yl)propanoic acid] | 184
CC(Cc1ccc2c(c1F)CCN(c1cc(OC(F)(F)F)cc(Cl)c1F)C2)C(=O)O (single isomer, unassigned) [Example 69, 3-{2-[3-chloro-2-fluoro-5-(trifluoromethoxy)phenyl]-5-fluoro-1,2,3,4-tetrahydroisoquinolin-6-yl}-2-methyl-propanoic acid] | 231
N#Cc1cc(OC(F)(F)F)cc(N2CCc3c(ccc([C@@H]4C[C@H]4C(=O)O)c3F)C2)c1F [Example 109, (1R,2R)-2-{2-[3-cyano-2-fluoro-5-(trifluoromethoxy)phenyl]-5-fluoro-1,2,3,4-tetrahydroisoquinolin-6-yl}cyclopropane-carboxylic acid] | 22
CO[C@H]1C[C@H](Oc2cc(F)c(F)c(N3CCc4cc([C@@H]5C[C@H]5C(=O)O)ccc4C3)c2)C1 [Example 99, (1R,2R)-2-(2-{2,3-difluoro-5-[(trans-3-methoxycyclobutyl)oxy]phenyl}-1,2,3,4-tetrahydro-isoquinolin-6-yl)-cyclopropanecarboxylic acid] | 127

More lines, in order of falling EC50, values ahead:

EC50 [nM] | Molecule
5880 | CC(Cc1ccc2c(c1F)CCN(c1cc(OC(F)(F)F)ccc1F)C2)C(=O)O (stereo not shown) [Example 77, 3-{5-fluoro-2-[2-fluoro-5-(trifluoromethoxy)phenyl]-1,2,3,4-tetrahydro-isoquinolin-6-yl}-2-methyl-propanoic acid]
1630 | O=C(O)CCc1ccc2c(c1F)CCN(c1c(-c3ccc(Cl)cc3)nsc1C(F)(F)F)C2 [Example 59, 3-(2-(3-(4-chlorophenyl)-5-(trifluoromethyl)isothiazol-4-yl)-5-fluoro-1,2,3,4-tetrahydroisoquinolin-6-yl)propanoic acid]
834 | Cc1ccc(-n2nc(C)c(F)c2N2CCc3cc(C4CC4C(=O)O)ccc3C2)cc1 (stereo not shown) [Example 96, 2-{2-[4-fluoro-3-methyl-1-(4-methylphenyl)-1H-pyrazol-5-yl]-1,2,3,4-tetrahydroisoquinolin-6-yl}cyclopropanecarboxylic acid]
414 | CC(CC(=O)O)c1ccc2c(c1)CCN(c1cc(OC(F)(F)F)ccc1F)C2 (single isomer, unassigned) [Example 8, 3-(2-(2-fluoro-5-(trifluoromethoxy)phenyl)-1,2,3,4-tetrahydro-isoquinolin-6-yl)-butanoic acid]
350 | O=C(O)[C@H]1C[C@@H]1c1ccc2c(c1)CCN(Cc1cc(C(F)(F)F)cc(Cl)c1F)C2 [Example 93, (1S,2S)-2-{2-[3-chloro-2-fluoro-5-(trifluoromethyl)benzyl]-1,2,3,4-tetrahydroisoquinolin-6-yl} cyclopropanecarboxylic acid]
73 | O=C(O)[C@@H]1C[C@H]1c1ccc2c(c1F)CCN(c1cc(OC(F)(F)F)cc(F)c1Cl)C2 [Example 121, (1R,2R)-2-{2-[2-chloro-3-fluoro-5-(trifluoromethoxy)phenyl]-5-fluoro-1,2,3,4-tetra-hydroisoquinolin-6-yl}cyclo-propanecarboxylic acid]
62 | O=C(O)CCc1ccc2c(c1)CCN(c1cc(OC(F)(F)F)cc(Cl)c1Cl)C2 [Example 156, 3-{2-[2,3-dichloro-5-(trifluoro-methoxy)phenyl]-1,2,3,4-tetra-hydroisoquinolin-6-yl}propanoic acid]
37 | O=C(O)CCc1ccc2c(c1F)CCN(c1cc(OC(F)(F)F)cc(Cl)c1F)C2 [Example 65, 3-{2-[3-chloro-2-fluoro-5-(trifluoromethoxy)phenyl]-5-fluoro-1,2,3,4-tetra-hydroisoquinolin-6-yl} propanoic acid]
23 | COc1cc(Oc2ncc(C)s2)cc(N2CCc3cc(CCC(=O)O)ccc3C2)c1F [Example 17, 3-(2-{2-fluoro-3-methoxy-5-[(5-methyl-1,3-thiazol-2-yl)oxy]phenyl}-1,2,3,4-tetrahydroiso-quinolin-6-yl)propanoic acid]

From patent US11161819B2, “Substituted tetrahydroisoquinoline compounds useful as GPR120 agonists” (Merck Sharp & Dohme Corp., priority 2016, dated 2021)
